This assay addresses T1, CFTR (Homo sapiens, UniProt P13569).
T1 construct: expressed in transfected cells
The experiment in a line: IonWorks Quattro assay (CFTR Inhibitor Assay), whole-cell planar patch clamp. It counts as cell-based. As to conditions: inward current (−100 mV); CHO cells stably expressing WT-CFTR; CFTR activated by 10 μM forskolin; test compound incubated 10 min. From the text:
CFTR activity can be quantified by electrophysiology methods, using the whole-cell configuration of the patch clamp technique (Hamill O, Marty A, Neher E, Sakmann B and Sigworth F. ‘Improved patch-clamp techniques for high resolution current recording from cells and cell-free membrane patches.’ Pflugers Archive 1981 391: 85-100). This assay directly measures the currents associated with chloride flow through CFTR channels whilst either maintaining or adjusting the transmembrane voltage. This assay can use either single glass micropipettes or parallel planar arrays to measure CFTR activity from native or recombinant cell systems. Currents measured using parallel planar arrays can be quantified using an appropriately equipped instrument such as the IonWorks Quattro (Molecular Devices Corporation, Sunnyvale, Calif.). The Quattro system can measure CFTR currents from either a single cell per recording well (HT configuration) or alternatively from a population of 64 cells per well (Population Patch Clamp PPC) (Finkel A, Wittel A, Yang N, Handran S, Hughes J, Costantin J. ‘Population patch clamp improves data consistency and success rates in the measurement of ionic currents.’ J Biomol Screen. 2006 August; 11 (5):488-96).
Chinese hamster ovary (CHO) cells stably expressing WT-CFTR channels were used for the IonWorks Quattro experiments. Cells were maintained at 37° C. in 5% v/v CO2 at 100% humidity in MEM alpha medium supplemented with 10% (v/v) FCS, 100 U/mL Penicillin/Streptomycin, and 100 μg/L methotrexate. For experiments, cells were grown in 225 cm^2 tissue culture flasks until almost confluent. Cells were removed from the flask using trypsin-EDTA and resuspended in extracellular recording solution for immediate experimentation.
Cells, at a density of 1.5-2 million per mL, were placed on the Quattro system, added to the planar patch plate and seals allowed to establish for 5-10 mins. After assessing seal resistances (typically >50 MΩ), whole-cell access was obtained by perforation with 100 μg/mL amphotericin B. Baseline currents were measured by a pre-compound scan obtained by application of a voltage ramp from −100 to +100 mV. CFTR was activated by the addition of 10 μM forskolin to each of the 384 wells of the patch plate. After 5 min incubation the post-compound 1 currents were measured, again by application of a voltage ramp from −100 to +100 mV. Test compounds, diluted from 10 mM stocks in DMSO in extracellular solution were then added to the patch plate and were incubated for a further 10 min. The post-compound 2 currents were measured by the application of the same voltage ramp from −100 to +100 mV. The inhibition of CFTR was determined from the difference in current between the forskolin addition (post-compound 1) and the test compound (post-compound 2). This was determined at both −100 mV and +100 mV which represents the inward and outward current respectively.
Extracellular solution (ECS): 145 mM NaCl, 4 mM CsCl, 5 mM D-glucose, 10 mM TES, 1 mM CaCl2, 1 mM MgCl2, pH 7.4 NaOH
Intracellular solution (ICS): 113 mM L-Aspartic acid, 113 mM CsOH, 27 mM CsCl, 1 mM NaCl, 1 mM MgCl2, 1 mM EGTA, 10 mM TES. pH 7.2 with CsOH. Filter sterilized before use.

As a reminder, the IC50 is the concentration at which inhibition is half-maximal.

Structures are written as SMILES.

T1 sequence (P13569 whole entry): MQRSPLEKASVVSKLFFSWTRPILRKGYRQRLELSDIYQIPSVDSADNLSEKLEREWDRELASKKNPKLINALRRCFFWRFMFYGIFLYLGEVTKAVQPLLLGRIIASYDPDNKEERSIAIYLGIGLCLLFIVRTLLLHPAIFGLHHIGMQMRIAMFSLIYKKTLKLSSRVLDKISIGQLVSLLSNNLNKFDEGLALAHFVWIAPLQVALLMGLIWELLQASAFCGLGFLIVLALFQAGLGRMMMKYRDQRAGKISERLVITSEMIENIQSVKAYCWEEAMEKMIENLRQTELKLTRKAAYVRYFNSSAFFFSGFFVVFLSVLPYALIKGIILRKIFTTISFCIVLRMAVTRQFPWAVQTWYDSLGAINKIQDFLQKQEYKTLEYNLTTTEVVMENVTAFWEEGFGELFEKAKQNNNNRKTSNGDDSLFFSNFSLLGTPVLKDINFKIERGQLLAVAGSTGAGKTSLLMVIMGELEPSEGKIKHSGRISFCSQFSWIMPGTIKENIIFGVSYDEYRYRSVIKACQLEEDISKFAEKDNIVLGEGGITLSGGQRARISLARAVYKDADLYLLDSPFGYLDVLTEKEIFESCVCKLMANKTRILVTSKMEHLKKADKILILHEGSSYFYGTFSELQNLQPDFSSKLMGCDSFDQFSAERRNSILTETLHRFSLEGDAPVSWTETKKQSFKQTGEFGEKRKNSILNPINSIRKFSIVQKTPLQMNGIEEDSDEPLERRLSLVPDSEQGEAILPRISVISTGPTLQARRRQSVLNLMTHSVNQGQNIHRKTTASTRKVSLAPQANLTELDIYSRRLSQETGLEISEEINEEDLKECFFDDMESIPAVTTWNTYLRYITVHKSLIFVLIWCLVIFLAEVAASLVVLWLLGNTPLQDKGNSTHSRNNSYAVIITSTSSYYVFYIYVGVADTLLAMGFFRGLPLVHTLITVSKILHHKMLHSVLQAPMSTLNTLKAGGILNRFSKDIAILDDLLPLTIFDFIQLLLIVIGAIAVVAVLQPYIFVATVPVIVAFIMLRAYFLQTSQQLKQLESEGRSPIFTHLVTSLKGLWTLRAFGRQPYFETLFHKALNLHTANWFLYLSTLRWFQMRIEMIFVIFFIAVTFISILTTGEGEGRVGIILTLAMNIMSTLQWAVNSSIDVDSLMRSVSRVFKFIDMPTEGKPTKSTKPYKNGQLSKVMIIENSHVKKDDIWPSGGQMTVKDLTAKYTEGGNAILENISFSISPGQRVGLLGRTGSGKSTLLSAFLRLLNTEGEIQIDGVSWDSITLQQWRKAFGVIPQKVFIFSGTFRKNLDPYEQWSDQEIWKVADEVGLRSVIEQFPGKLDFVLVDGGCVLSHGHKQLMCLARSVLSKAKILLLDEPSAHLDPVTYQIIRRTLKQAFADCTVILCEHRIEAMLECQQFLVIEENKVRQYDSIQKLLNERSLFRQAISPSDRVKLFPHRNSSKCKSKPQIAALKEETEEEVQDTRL

Compound `Cn1c(=O)c2c(-c3ccccc3)n3c(c2n(C)c1=O)C(c1ccc(Cl)o1)SC(CO)C3` (single isomer, unassigned) [Example 12.a, 10-(5-chlorofuran-2-yl)-8-(hydroxymethyl)-1,3-dimethyl-5-phenyl-7,8-dihydro-1H-pyrimido[4′,5′:3,4]pyrrolo[2,1-c][1,4]thiazine-2,4(3H,10H)-dione] registered an IC50 of 0.2 µM.
Compound `Cn1c(=O)c2c(-c3nc(CO)cs3)n3c(c2n(C)c1=O)[C@H](c1ccc(Cl)o1)SCC3` (single isomer, unassigned) [Example 15, 10-(5-Chlorofuran-2-yl)-5-(4-(hydroxymethyl)thiazol-2-yl)-1,3-dimethyl-7,8-dihydro-1H-pyrimido[4′,5′:3,4]pyrrolo[2,1-c][1,4]thiazine-2,4(3H,10H)-dione] showed an IC50 of 0.1 µM.
The compound `Cc1csc(C2c3c4c(c(-c5cccc(C#N)c5)n3CC2(C)C)c(=O)n(C)c(=O)n4C)n1` (single isomer, unassigned) [Example 21.8, 3-(1,3,8,8-Tetramethyl-9-(4-methylthiazol-2-yl)-2,4-dioxo-2,3,4,7,8,9-hexahydro-1H-pyrimido[4,5-a]pyrrolizin-5-yl)benzonitrile] had an IC50 of 1.39 µM.
In the case of `Cc1ccc([C@@H]2C[C@H](C)Cn3c(-c4cccc(F)c4)c4c(=O)n(C)c(=O)n(C)c4c32)o1` (single isomer, unassigned) [Example 7.5b, 5-(3-fluorophenyl)-1,3,8-trimethyl-10-(5-methylfuran-2-yl)-7,8,9,10-tetrahydropyrimido[4,5-a]indolizine-2,4(1H,3H)-dione], the IC50 was determined as 2.18 µM.
For `CCOc1cccc(-c2c3c(=O)n(C)c(=O)n(C)c3c3n2CCSC3c2ccc(Cl)o2)c1` (single isomer, unassigned) [Example 15.12, 10-(5-Chlorofuran-2-yl)-5-(3-ethoxyphenyl)-1,3-dimethyl-7,8-dihydro-1H-pyrimido[4′,5′:3,4]pyrrolo[2,1-c][1,4]thiazine-2,4(3H,10H)-dione] the value was 9.27 µM.
For `Cc1csc(C2CCNn3c(-c4ccccc4)c4c(=O)n(C)c(=O)n(C)c4c32)n1` (racemic) [Example 10.0, 1,3-Dimethyl-10-(4-methylthiazol-2-yl)-5-phenyl-7,8,9,10-tetrahydropyrimido[4′,5′:3,4]pyrrolo[1,2-b]pyridazine-2,4(1H,3H)-dione] the value was 2.15 µM; for `Cn1c(=O)c2c(-c3ccccc3)n3c(c2n(C)c1=O)C(c1nc(Cl)cs1)C(C)(C)C3` (single isomer, unassigned) [Example 21a, 9-(4-chlorothiazol-2-yl)-1,3,8,8-tetramethyl-5-phenyl-8,9-dihydro-1H-pyrimido[4,5-a]pyrrolizine-2,4(3H,7H)-dione], 0.33 µM.
In the case of `Cc1ccc(C2SCCn3c(-c4ccccc4)c4c(=O)n(C)c(=O)n(C)c4c32)o1` (single isomer, unassigned) [Example 1.3, 1,3-Dimethyl-10-(5-methylfuran-2-yl)-5-phenyl-7,8-dihydro-1H-pyrimido[4′,5′:3,4]pyrrolo[2,1-c][1,4]thiazine-2,4(3H,10H)-dione], the IC50 is over 30 µM.
For `Cc1csc(-c2c3c(=O)n(C)c(=O)n(C)c3c3n2C[C@H](CNS(C)(=O)=O)S[C@H]3c2ccc(Cl)o2)n1` (single isomer, unassigned) [Example 26a, N-((10-(5-chlorofuran-2-yl)-1,3-dimethyl-5-(4-methylthiazol-2-yl)-2,4-dioxo-2,3,4,7,8,10-hexahydro-1H-pyrimido[4′,5′:3,4]pyrrolo[2,1-c][1,4]thiazin-8-yl)methyl)methanesulfonamide], the IC50 was 0.15 µM.
With `Cc1csc(C2CCNn3c(-c4cccc(Cl)c4)c4c(=O)n(C)c(=O)n(C)c4c32)n1` (racemic) [Example 10.2, 5-(3-Chlorophenyl)-1,3-dimethyl-10-(4-methylthiazol-2-yl)-7,8,9,10-tetrahydropyrimido[4′,5′:3,4]pyrrolo[1,2-b]pyridazine-2,4(1H,3H)-dione], the IC50 was found to be 0.7 µM.
Consider `Cc1nnc(-c2c3c(=O)n(C)c(=O)n(C)c3c3n2CCSC3c2ccc(Cl)o2)o1` (racemic) [Example 15.9, 10-(5-Chlorofuran-2-yl)-1,3-dimethyl-5-(5-methyl-1,3,4-oxadiazol-2-yl)-7,8-dihydro-1H-pyrimido[4′,5′:3,4]pyrrolo[2,1-c][1,4]thiazine-2,4(3H,10H)-dione], for which the IC50 stood at 1.9 µM.
Compound `Cn1cc(-c2c3c(=O)n(C)c(=O)n(C)c3c3n2CCSC3c2ccc(Cl)o2)cn1` (racemic) [Example 15.8, 10-(5-Chlorofuran-2-yl)-1,3-dimethyl-5-(1-methyl-1H-pyrazol-4-yl)-7,8-dihydro-1H-pyrimido[4′,5′:3,4]pyrrolo[2,1-c][1,4]thiazine-2,4(3H,10H)-dione] yielded an IC50 of 3.93 µM.
For `Cn1c(=O)c2c(-c3ccccc3)n3c(c2n(C)c1=O)C(c1cccc(F)c1F)CCC3` (racemic) [Example 6.1, 10-(2,3-Difluorophenyl)-1,3-dimethyl-5-phenyl-7,8,9,10-tetrahydropyrimido[4,5-a]indolizine-2,4(1H,3H)-dione] the value was 27.6 µM; for `Cn1c(=O)c2c(-c3ccccc3)n3c(c2n(C)c1=O)C(c1ccc(Cl)o1)SC(CO)C3` (single isomer, unassigned) [Example 12.b, 10-(5-chlorofuran-2-yl)-8-(hydroxymethyl)-1,3-dimethyl-5-phenyl-7,8-dihydro-1H-pyrimido[4′,5′:3,4]pyrrolo[2,1-c][1,4]thiazine-2,4(3H,10H)-dione], 0.54 µM; for `Cc1csc(-c2c3c(=O)n(C)c(=O)n(C)c3c3n2C[C@@H](CN2CCOC2=O)S[C@@H]3c2ccc(Cl)o2)n1` (single isomer, unassigned) [Example 30a, 10-(5-chlorofuran-2-yl)-1,3-dimethyl-5-(4-methylthiazol-2-yl)-8-((2-oxooxazolidin-3-yl)methyl)-7,8-dihydro-1H-pyrimido[4′,5′:3,4]pyrrolo[2,1-c][1,4]thiazine-2,4(3H,10H)-dione], 0.16 µM.
Then `Cn1c(=O)c2c(-c3ccccc3)n3c(c2n(C)c1=O)C(c1cccc(C#N)c1)CCC3` (racemic) [Example 9.2, 3-(1,3-Dimethyl-2,4-dioxo-5-phenyl-1,2,3,4,7,8,9,10-octahydropyrimido[4,5-a]indolizin-10-yl)benzonitrile], with 9.3 µM; and `COCC(=O)NC[C@H]1Cn2c(-c3nc(C)cs3)c3c(=O)n(C)c(=O)n(C)c3c2[C@H](c2ccc(Cl)o2)S1` (single isomer, unassigned) [Example 26.1a, N-((10-(5-chlorofuran-2-yl)-1,3-dimethyl-5-(4-methylthiazol-2-yl)-2,4-dioxo-2,3,4,7,8,10-hexahydro-1H-pyrimido[4′,5′:3,4]pyrrolo[2,1-c][1,4]thiazin-8-yl)methyl)-2-methoxyacetamide], with 0.23 µM.
`Cn1cnc(-c2c3c(=O)n(C)c(=O)n(C)c3c3n2CCSC3c2ccc(Cl)o2)c1` (racemic) [Example 15.7, 10-(5-Chlorofuran-2-yl)-1,3-dimethyl-5-(1-methyl-1H-imidazol-4-yl)-7,8-dihydro-1H-pyrimido[4′,5′:3,4]pyrrolo[2,1-c][1,4]thiazine-2,4(3H,10H)-dione] displayed an IC50 of 5.5 µM.
Take `Cc1ccc([C@@H]2CC[C@@H](Cn3nccn3)n3c(-c4ccccc4)c4c(=O)n(C)c(=O)n(C)c4c32)o1` (single isomer, unassigned) [Example 24]: inhibition was half-maximal at 1.74 µM (IC50).
`Cn1c(=O)c2c(-c3cccc(C#N)c3)n3c(c2n(C)c1=O)[C@H](c1nc(Cl)cs1)C[C@@H](CO)C3` (single isomer, unassigned) [Example 23.1a, 3-(10-(4-chlorothiazol-2-yl)-8-(hydroxymethyl)-1,3-dimethyl-2,4-dioxo-1,2,3,4,7,8,9,10-octahydropyrimido[4,5-a]indolizin-5-yl)benzonitrile] came in with an IC50 of 0.1 µM.
`Cn1c(=O)c2c(-c3ccccc3)n3c(c2n(C)c1=O)C(c1cccc(Cl)c1)SCC3` (racemic) [Example 1.6, 10-(3-Chlorophenyl)-1,3-dimethyl-5-phenyl-7,8-dihydro-1H-pyrimido[4′,5′:3,4]pyrrolo[2,1-c][1,4]thiazine-2,4(3H,10H)-dione] came in with an IC50 of 11.1 µM.

The values above are taken from US20140171417A1, “TRICYCLIC COMPOUNDS” (NOVARTIS AG, priority 2012, published 2014).
